Earlier results as cited in patent US20250082627A1, “TOBACCO HARM REDUCTION AND PAIN RELIEF PRODUCTS AND METHODS THEREOF” (Ready Mix Naturals, LLC, priority 2023, published 2025).

Columns and labels:
[1] = target: TRPV1 (Homo sapiens, UniProt Q8NER1); conditions: among phytocannabinoids
[2] = target: TRPA1 (Homo sapiens, UniProt O75762)
[3] = target: T1, TRPV2 (Homo sapiens, UniProt Q9Y5S1); conditions: among phytocannabinoids
T1 sequence (Q9Y5S1 1-764): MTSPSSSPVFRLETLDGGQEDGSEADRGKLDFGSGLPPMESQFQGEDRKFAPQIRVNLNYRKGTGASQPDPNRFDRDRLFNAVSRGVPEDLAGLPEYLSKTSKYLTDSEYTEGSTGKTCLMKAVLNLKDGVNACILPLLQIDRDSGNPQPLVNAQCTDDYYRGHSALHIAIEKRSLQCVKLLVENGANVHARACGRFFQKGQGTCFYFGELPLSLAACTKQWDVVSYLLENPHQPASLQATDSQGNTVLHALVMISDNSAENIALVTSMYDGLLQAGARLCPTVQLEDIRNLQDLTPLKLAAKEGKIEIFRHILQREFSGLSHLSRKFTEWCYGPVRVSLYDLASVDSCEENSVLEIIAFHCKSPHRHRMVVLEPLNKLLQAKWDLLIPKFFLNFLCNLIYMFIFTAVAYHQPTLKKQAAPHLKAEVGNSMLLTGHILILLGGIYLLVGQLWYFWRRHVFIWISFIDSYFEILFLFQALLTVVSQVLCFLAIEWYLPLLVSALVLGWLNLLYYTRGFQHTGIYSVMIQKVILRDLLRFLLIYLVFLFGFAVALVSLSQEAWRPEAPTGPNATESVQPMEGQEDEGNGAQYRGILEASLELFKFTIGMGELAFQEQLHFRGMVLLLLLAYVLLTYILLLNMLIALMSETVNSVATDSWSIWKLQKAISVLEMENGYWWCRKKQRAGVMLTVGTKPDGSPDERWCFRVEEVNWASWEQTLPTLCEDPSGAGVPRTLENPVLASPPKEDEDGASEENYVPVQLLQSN

TRPA1, sequence (O75762 whole entry, species assumed): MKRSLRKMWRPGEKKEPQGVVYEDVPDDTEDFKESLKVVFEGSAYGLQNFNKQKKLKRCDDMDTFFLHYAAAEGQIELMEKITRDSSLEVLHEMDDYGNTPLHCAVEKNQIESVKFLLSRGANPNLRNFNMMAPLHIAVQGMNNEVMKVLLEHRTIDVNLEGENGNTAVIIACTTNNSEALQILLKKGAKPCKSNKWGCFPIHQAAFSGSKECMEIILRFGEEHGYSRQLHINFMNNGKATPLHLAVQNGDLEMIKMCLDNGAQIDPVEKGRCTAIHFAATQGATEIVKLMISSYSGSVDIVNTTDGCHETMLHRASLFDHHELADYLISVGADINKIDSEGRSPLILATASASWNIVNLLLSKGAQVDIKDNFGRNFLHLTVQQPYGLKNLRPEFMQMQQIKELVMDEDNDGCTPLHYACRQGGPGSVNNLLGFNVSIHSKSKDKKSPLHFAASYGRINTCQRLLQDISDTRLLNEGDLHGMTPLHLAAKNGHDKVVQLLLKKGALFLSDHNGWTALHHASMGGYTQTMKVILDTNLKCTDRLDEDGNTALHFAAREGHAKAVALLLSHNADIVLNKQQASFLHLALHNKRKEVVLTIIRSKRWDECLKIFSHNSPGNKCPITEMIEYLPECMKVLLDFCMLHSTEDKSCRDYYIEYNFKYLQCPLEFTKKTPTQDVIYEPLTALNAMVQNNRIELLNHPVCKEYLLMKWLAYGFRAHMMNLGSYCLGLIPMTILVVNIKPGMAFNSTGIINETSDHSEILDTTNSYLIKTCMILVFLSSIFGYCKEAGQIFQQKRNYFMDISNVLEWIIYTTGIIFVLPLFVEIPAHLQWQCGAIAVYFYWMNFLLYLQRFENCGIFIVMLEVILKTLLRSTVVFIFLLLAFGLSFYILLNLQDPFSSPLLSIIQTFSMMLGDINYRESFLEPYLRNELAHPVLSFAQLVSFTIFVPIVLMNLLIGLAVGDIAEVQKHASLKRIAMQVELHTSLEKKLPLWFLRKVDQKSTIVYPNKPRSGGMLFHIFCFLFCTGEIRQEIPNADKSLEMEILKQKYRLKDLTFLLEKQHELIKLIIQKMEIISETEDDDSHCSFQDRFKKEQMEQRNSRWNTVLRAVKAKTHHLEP
TRPV1, sequence (Q8NER1 whole entry, species assumed): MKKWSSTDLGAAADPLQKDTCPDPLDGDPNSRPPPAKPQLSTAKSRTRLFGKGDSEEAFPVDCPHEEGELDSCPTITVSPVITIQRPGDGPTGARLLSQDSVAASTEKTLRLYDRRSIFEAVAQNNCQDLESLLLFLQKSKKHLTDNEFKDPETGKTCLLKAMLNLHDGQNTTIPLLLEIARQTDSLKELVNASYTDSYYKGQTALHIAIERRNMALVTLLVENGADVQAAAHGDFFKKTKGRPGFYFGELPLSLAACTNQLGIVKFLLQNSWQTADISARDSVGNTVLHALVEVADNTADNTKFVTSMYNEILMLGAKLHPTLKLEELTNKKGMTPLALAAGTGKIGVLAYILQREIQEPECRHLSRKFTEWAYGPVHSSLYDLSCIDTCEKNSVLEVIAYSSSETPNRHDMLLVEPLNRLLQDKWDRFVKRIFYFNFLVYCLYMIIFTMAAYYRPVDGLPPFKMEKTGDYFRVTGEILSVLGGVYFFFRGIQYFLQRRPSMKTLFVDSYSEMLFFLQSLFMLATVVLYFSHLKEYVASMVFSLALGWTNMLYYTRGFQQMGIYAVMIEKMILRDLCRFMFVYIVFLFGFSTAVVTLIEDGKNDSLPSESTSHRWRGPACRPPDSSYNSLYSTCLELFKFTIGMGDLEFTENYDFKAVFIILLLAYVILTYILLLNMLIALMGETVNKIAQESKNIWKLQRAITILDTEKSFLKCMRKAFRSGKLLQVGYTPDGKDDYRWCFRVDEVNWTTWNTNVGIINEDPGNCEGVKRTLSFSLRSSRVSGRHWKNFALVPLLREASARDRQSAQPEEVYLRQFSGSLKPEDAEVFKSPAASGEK

C=C(C)[C@@H]1CCC(C)=C[C@H]1c1c(O)cc(CCCCC)cc1O [CBD, cannabidiol]
agonism of TRPV1 [1]: most potent and efficacious phytocannabinoid agonist of TRPV1

CN1CCCC1c1cccnc1 (stereo not shown) [nicotine]
activation of TRPA1 [2]: known activator of TRPA1

CCCCCc1cc(O)c2c(c1)OC(C)(C)[C@@H]1CCC(C)=C[C@@H]21 [Δ^9-THC, Δ^9-tetrahydrocannabinol]
activation of TRPV2 [3]: most potent phytocannabinoid for activating TRPV2 | activation of TRPA1 [2]: also activates TRPA1
